Format in all cases: cell-based
For one test, the target named is T1, human TLR7 (Homo sapiens, UniProt Q9NYK1).
T1 construct: host or cells: HEK-Blue cells
T1 sequence (Q9NYK1 27-1049): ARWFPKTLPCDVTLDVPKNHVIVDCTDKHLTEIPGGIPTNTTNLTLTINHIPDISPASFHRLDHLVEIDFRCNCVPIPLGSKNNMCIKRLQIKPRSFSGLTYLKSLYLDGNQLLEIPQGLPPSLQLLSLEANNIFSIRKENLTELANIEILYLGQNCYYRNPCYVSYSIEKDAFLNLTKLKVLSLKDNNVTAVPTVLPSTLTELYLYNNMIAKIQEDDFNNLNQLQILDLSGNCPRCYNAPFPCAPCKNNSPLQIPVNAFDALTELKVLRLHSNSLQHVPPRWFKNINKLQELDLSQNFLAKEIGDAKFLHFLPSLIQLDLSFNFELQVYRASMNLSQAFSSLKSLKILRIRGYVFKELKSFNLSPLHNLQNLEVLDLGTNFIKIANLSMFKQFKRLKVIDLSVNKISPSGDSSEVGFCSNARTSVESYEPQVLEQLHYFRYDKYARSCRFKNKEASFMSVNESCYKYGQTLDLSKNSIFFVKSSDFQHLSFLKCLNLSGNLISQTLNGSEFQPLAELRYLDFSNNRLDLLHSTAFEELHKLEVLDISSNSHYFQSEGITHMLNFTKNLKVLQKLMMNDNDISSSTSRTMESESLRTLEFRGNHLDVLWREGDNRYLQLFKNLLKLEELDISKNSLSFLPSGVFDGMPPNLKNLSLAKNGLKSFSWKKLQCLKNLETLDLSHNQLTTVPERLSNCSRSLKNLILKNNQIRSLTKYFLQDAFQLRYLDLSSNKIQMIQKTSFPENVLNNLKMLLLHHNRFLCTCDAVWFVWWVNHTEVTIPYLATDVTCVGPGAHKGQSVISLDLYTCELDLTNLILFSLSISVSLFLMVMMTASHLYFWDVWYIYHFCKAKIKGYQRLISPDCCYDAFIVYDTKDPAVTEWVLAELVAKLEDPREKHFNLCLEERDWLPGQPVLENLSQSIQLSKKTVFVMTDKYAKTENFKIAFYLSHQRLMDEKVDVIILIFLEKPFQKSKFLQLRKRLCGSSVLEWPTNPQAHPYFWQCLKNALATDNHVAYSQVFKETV
Kind of test: TLR7 inhibition reporter assay (HEK-Blue SEAP reporter, gardiquimod stimulation). As to conditions: HEK-Blue cells overexpressing human TLR7, SEAP reporter, gardiquimod 7.5 μM, 22 hour incubation. An outline of the steps:
(§1)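 Screening used HEK-Blue cells overexpressing one human TLR (7, 8 or 9) and an IFN-β minimal promoter–NF-κB/AP-1 SEAP construct. Stimulation lasted 22 h at 37 °C with receptor-specific agonist: gardiquimod, R848 or ODN2006 at 7.5 μM, 15.9 μM and 5 nM.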
A general note: In a reporter assay the amount or activity of a reporter protein is the signal.

A further test addresses T2, human TLR8 (Homo sapiens, UniProt Q9NR97).
T2 construct: host or cells: HEK-Blue cells
T2 sequence (Q9NR97 27-1041): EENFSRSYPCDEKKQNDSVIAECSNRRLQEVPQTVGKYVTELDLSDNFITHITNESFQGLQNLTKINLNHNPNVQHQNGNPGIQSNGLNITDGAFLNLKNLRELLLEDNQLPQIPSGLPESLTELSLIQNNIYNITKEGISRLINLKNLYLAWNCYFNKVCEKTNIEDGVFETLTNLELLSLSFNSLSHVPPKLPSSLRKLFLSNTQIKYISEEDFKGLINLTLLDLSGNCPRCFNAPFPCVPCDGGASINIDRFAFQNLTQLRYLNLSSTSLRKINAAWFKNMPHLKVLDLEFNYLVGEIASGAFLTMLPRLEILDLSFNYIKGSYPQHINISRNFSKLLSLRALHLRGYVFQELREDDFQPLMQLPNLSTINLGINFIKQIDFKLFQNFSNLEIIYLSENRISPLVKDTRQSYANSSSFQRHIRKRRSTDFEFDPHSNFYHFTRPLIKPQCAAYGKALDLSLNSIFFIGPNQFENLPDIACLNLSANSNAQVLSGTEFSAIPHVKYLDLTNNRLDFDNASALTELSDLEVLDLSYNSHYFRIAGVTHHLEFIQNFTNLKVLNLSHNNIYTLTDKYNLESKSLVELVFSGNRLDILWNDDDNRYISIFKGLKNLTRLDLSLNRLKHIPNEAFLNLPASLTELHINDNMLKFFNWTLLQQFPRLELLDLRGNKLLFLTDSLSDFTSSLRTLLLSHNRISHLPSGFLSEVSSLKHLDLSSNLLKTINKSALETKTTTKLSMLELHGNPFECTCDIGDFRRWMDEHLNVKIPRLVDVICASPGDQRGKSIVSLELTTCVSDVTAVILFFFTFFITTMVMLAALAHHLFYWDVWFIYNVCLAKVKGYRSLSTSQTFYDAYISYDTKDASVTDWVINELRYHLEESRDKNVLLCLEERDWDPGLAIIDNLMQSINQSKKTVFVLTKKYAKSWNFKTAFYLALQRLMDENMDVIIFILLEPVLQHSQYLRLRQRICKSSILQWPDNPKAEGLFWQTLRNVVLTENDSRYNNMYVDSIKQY
Kind of test: TLR8 inhibition reporter assay (HEK-Blue SEAP reporter, R848 stimulation). The settings on record: HEK-Blue cells overexpressing human TLR8, SEAP reporter, R848 15.9 μM, 22 hour incubation. An outline of the steps: as §1

Another test has as its target T3, human TLR9 (Homo sapiens, UniProt Q9NR96).
T3 construct: host or cells: HEK-Blue cells
T3 sequence (Q9NR96 26-1032): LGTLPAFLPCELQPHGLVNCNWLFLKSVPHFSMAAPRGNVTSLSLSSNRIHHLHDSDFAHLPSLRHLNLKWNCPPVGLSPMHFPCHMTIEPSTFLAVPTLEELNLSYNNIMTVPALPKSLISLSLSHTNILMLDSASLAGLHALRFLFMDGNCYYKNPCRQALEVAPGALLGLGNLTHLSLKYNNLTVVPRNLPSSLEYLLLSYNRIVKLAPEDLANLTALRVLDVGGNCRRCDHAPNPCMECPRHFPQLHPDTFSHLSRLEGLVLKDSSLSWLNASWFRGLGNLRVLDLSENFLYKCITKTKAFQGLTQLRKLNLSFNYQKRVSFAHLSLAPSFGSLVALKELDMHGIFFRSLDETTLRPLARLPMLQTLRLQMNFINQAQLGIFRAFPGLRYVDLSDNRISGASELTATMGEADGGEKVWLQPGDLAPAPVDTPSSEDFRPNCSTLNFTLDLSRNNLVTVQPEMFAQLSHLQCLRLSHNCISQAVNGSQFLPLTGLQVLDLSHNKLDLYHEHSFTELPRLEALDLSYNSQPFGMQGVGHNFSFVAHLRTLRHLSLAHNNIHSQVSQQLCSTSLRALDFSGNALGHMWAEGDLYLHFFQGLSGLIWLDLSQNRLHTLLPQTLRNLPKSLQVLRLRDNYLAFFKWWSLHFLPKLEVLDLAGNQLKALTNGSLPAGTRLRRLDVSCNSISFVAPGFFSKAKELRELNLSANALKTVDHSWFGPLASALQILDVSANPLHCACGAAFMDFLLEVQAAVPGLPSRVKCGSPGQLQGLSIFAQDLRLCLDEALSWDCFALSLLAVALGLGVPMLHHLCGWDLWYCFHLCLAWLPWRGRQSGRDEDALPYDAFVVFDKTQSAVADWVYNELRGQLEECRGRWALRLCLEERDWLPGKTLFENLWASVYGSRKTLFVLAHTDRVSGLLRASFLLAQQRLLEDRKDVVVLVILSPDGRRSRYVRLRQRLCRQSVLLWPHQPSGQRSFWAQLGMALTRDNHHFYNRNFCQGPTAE
The test is described as follows: TLR9 inhibition reporter assay (HEK-Blue SEAP reporter, ODN2006 stimulation). The settings on record: HEK-Blue cells overexpressing human TLR9, SEAP reporter, ODN2006 5 nM, 22 hour incubation. An outline of the steps: as §1

SMILES strings stand for the structures.

A word on the IC50: it is the concentration needed to halve the response being measured. The low end stands for greater potency in that assay, the high end for weaker potency in that assay. Regarding `Cc1c(-c2[nH]c3ccc(C4CCNCC4)cc3c2C(C)C)ccc(=O)n1C` [Example 6, 5-(3-isopropyl-5-(piperidin-4-yl)-1H-indol-2-yl)-1,6-dimethylpyridin-2(1H)-one], the IC50 was found to be 12.8 nM against human TLR7, 13.3 nM on human TLR8 and 580 nM on human TLR9.
As to `CCc1c(-c2cn(C)c(=O)c(Cl)c2C)[nH]c2ccc(C3CCN(CC(=O)N(C)C)CC3)cc12` [Example 157, 2-(4-(2-(5-chloro-1,4-dimethyl-6-oxo-1,6-dihydropyridin-3-yl)-3-ethyl-1H-indol-5-yl)piperidin-1-yl)-N,N-dimethylacetamide], the IC50 at human TLR7 was found to be 12.8 nM; against human TLR8 it was 12.2 nM; at human TLR9, 6390 nM.
The matching figures for `Cc1c(-c2[nH]c3ccc(C4CCN(C(=O)CN(C)C)CC4)cc3c2C(C)C)cn(C)c(=O)c1C#N` [Example 274, 5-(5-(1-(dimethylglycyl)piperidin-4-yl)-3-isopropyl-1H-indol-2-yl)-1,4-dimethyl-2-oxo-1,2-dihydropyridine-3-carbonitrile]: 183 nM, 15.3 nM and 1590 nM.
Regarding `COc1cc(-c2[nH]c3ccc(C4CCN(C(=O)CN(C)C)CC4)cc3c2C(C)C)c(C)n(C)c1=O` [Example 275, 5-(5-(1-(dimethylglycyl)piperidin-4-yl)-3-isopropyl-1H-indol-2-yl)-3-methoxy-1,6-dimethylpyridin-2(1H)-one], the IC50 against human TLR7 came to 194 nM; on human TLR8, 95.7 nM; at human TLR9 it was 3190 nM.
Turning to `COc1c(C)c(-c2[nH]c3ccc(C4CCN(CC(=O)N(C)C)CC4)cc3c2C(C)C)cn(C)c1=O` [Example 141, 2-(4-(3-isopropyl-2-(5-methoxy-1,4-dimethyl-6-oxo-1,6-dihydropyridin-3-yl)-1H-indol-5-yl)piperidin-1-yl)-N,N-dimethylacetamide], the half-maximal inhibitory concentration (IC50) amounted to 27.9 nM against human TLR7, 37.3 nM against human TLR8 and 4460 nM on human TLR9.
Turning to `COCc1cc(-c2[nH]c3ccc(C4CCN(C5CCOCC5)CC4)cc3c2C(C)C)cn(C)c1=O` [Example 345, 5-(3-isopropyl-5-(1-(tetrahydro-2H-pyran-4-yl)piperidin-4-yl)-1H-indol-2-yl)-3-(methoxymethyl)-1-methylpyridin-2(1H)-one], the concentration for half-maximal inhibition (IC50) at human TLR7 was determined as 11.1 nM; at human TLR8, 16.9 nM; on human TLR9, 7050 nM.
In the case of `CCn1cc(-c2[nH]c3ccc(C4CCNCC4)cc3c2C(C)C)c(C)c(C)c1=O` [Example 26, 1-ethyl-5-(3-isopropyl-5-(piperidin-4-yl)-1H-indol-2-yl)-3,4-dimethylpyridin-2(1H)-one], the values for the IC50 against human TLR7, against human TLR8 and against human TLR9 were 12 nM, 8.9 nM and 1860 nM, respectively.
Regarding `CCc1cc(-c2[nH]c3ccc(C4CCNCC4)cc3c2C(C)C)c(C)n(CC)c1=O` [Example 35, 1,3-diethyl-5-(3-isopropyl-5-(piperidin-4-yl)-1H-indol-2-yl)-6-methylpyridin-2(1H)-one], the values for the concentration for half-maximal inhibition (IC50) against human TLR7, on human TLR8 and against human TLR9 were 60 nM, 6.8 nM and 574 nM, respectively.
`CC(C)c1c(-c2cn(C)c(=O)n(C)c2=O)[nH]c2ccc(C3CCNCC3)cc12` [Example 21, 5-(3-isopropyl-5-(piperidin-4-yl)-1H-indol-2-yl)-1,3-dimethylpyrimidine-2,4(1H,3H)-dione]: the half-inhibitory concentration (IC50) against human TLR7 stood at 105 nM; at human TLR8, 263 nM; on human TLR9 it was 6540 nM.
Take `CC(C)c1c(-c2cc(/C=C/C3CC3)c(=O)n(C)c2)[nH]c2ccc(C3CCNCC3)cc12` [Example 52, (E)-3-(2-cyclopropylvinyl)-5-(3-isopropyl-5-(piperidin-4-yl)-1H-indol-2-yl)-1-methylpyridin-2(1H)-one]: the 50% inhibitory concentration (IC50) against human TLR7 came out at 185 nM; against human TLR8, 142 nM; against human TLR9, 1520 nM.

The record behind these values is US11447466B2, “Substituted indole compounds useful as inhibitors of TLR7/8/9” (BRISTOL-MYERS SQUIBB COMPANY, priority 2017, dated 2022).
